Results from paper PMC10305181, “A VEGFB-Based Peptidomimetic Inhibits VEGFR2-Mediated PI3K/Akt/mTOR and PLCγ/ERK Signaling and Elicits Apoptotic, Antiangiogenic, and Antitumor Activities” (Pharmaceuticals, 2023).

Tests used:
[1] = molecular target: VEGFR2 extracellular domain (UniProt P35968); assay: ELISA; ELISA-based displacement assay as in ref. 51 with modifications; 20 ng VEGFR2 extracellular domain; biotinylated VEGF (btVEGF165) displaced by peptide; C-VGB3 0-316 μM, L-VGB3 up to 3 mM; triplicate
[2] = system: extracellular domain of VEGFR2 (KDR); assay: ELISA-based displacement (competition binding) of biotinylated VEGF from VEGFR2
Description: Figure 3 The binding affinity of C-VGB3 to VEGFR2. (A) ELISA-based displacement assay. The gradient concentrations of C-VGB3 (0, 0.316, 1, 3.16, 10, 31.6, 100, and 316 μM) were used in the assay. […] Error bars denote ± SEM. n = 3; ** p = 0.001, *** p = 0.0001, **** p < 0.0001, ns = not significant; one-way ANOVA. (B) A three-dimensional (produced by UCSF chimera software version 1.12) and a two-dimensional representation (produced by LigPlot software) of interactions in the C-VGB3/VEGFR2 complex is shown on the left and the right, respectively.
A displacement assay was conducted as reported previously with some modifications, including using 20 ng of the VEGFR2 extracellular domains (R&D Systems, Minneapolis, MN, USA). Peptide compounds were assayed three times per experiment.
Figure S6. Evaluating the binding capability of L-VGB3 to VEGFR2
(A) ELISA-based displacement assay. The gradient concentrations of L-VGB3 (3.16, 10, […]
to the extracellular domain of VEGFR2 at applied concentrations. (B) Two-dimensional representation of interactions (produced by LigPlot software) in L-VGB3/VEGFR2 […]

[3] = system: 4T1 murine MCT in female BALB/c mice; assay type: in vivo; settings: 0.2 mg·kg^−1 i.v. once every 2 days, day 13 to 33; n = 6
Description: (§1) Figure 2 Loop formation is important for the antitumor activity of VGB3. (A) To investigate the efficacy of VGB3 peptides in vivo 13 days after transplantation of a 4T1 murine MCT into female BALB/c mice (the tumor volume ~150 mm^3), the treatment groups received 0.2 mg·kg^−1 (once every 2 days, i.v.) of either the C-VGB3 or L-VGB3 and the control group received PBS for 20 days. Error bars denote ± SEM. n = 6; **** p < 0.0001, ns = not significant; two-way ANOVA. (B) Investigation of C-VGB3 and L-VGB3 effects on mice weight. […] (C,D) Immunohistochemical (IHC) analyses of CD31 and Ki67 for the C-VGB3-, L-VGB3- and PBS-treated tumors. For IHC staining, the sections of tumor tissues were incubated with the primary mouse monoclonal antibodies for CD31 (1:2000 (v/v)) and Ki67 (5 µg·mL^−1). […] Photographs were taken at 40× magnification. Error bars denote ± SEM. n = 3; * 0.02 ≤ p ≤ 0.04, ns = not significant; one-way ANOVA.
The antitumor efficacy of the peptides was investigated as described previously. Thirteen days after implanting, tumor (~150 mm^3)-bearing mice were grouped randomly into control and treated animals (6/group). […] The volume of tumors was calculated as 0.52 × length × width^2. In addition, changes in the weight of animals were recorded every 2 days.

[4] = body weight / tolerability of treated 4T1 tumor-bearing mice; assay type: in vivo; settings: 0.2 mg·kg^−1 i.v. once every 2 days
Description: as §1
The antitumor efficacy of the peptides was investigated as described previously. Thirteen days after implanting, tumor (~150 mm^3)-bearing mice were grouped randomly into control and treated animals (6/group). From day 13 to day 33, the treatment group received cyclic or linear VGB3 (0.2 mg·kg^−1), whereas the control group received an equal volume of PBS (i.v., once every two days). The volume of tumors was calculated as 0.52 × length × width^2. In addition, changes in the weight of animals were recorded every 2 days.

Ki67-positive cells = assay: Ki67 immunohistochemistry of 4T1 tumors (proliferation); assay type: in vivo, murine; settings: 0.2 mg·kg^−1 i.v.; n = 3
Description: as §1
For immunohistochemistry staining, deparaffinized tumor sections were incubated overnight at 4 °C with mouse monoclonal primary anti-Ki67 (5 µg·mL^−1) or anti-CD31 (1:2000 (v/v)). The antigens were detected using 3,3-diaminobenzidine. All images were captured and analyzed with an Olympus BX51 microscope (Olympus America, New York, NY, USA).

HUVE and 4T1 cell lines = assay: MTT assay, HUVE and 4T1 cell lines (linear vs cyclic peptide, not separated); assay type: cell-based; settings: cell line not specified at the place; 0–1.81 μM, 24 and 48 h
Description: The effects of C-VGB3 and L-VGB3 on the cell survival of HUVE and 4T1 cell lines were investigated using the MTT assay, as previously described, with some modifications. Cells were incubated with (0–1.81 μM) or without the peptide in the presence (20 ng·mL^−1) or in the absence of VEGF (Sigma-Aldrich, St. Louis, MO, USA). After 24 and 48 h of incubation at 37 °C, the absorbance at 570 nm was recorded using an ELISA plate reader (Space Fax 2100, Awareness, Palm City, FL, USA). The tests were repeated three times.

Chain of UniProt P35968 (P35968 20-764): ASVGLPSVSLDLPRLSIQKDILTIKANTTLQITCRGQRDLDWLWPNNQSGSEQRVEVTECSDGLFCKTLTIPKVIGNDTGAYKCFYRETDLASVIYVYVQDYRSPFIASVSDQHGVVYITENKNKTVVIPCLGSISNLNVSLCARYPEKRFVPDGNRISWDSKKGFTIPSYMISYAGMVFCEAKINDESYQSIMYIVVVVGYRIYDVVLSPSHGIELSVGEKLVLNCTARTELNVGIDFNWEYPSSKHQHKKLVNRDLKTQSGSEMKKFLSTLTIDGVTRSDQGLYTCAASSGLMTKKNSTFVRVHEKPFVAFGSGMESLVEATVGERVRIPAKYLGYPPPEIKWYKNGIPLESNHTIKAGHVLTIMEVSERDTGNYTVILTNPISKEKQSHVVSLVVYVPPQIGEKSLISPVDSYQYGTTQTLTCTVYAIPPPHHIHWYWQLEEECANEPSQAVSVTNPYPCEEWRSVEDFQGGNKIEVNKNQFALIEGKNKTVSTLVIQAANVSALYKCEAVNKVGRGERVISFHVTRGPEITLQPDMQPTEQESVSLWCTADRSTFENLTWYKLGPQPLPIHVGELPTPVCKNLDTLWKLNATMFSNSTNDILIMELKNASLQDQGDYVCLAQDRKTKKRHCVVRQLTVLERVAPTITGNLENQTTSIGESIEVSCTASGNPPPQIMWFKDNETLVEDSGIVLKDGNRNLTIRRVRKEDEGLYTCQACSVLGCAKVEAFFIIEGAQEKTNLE

percent displacement of btVEGF165 at 100 μM C-VGB3 [1] [%]	Substance	binding to VEGFR2 extracellular domain ([2]; 3 mM, competition binding assay)	binding to VEGFR2 extracellular domain ([2]; 3.16-3160 μM, ELISA-based displacement assay)	inhibition of 4T1 MCT (tumor growth), in words [3]	toxicity at this dosage (weight gain) ([4]; three weeks)	mice weight vs control groups ([4]; two-way ANOVA)	decrease in Ki67-positive cells, in words (Ki67-positive cells)	antiproliferative property (HUVE and 4T1 cell lines)
58	C-VGB3 (cyclic VGB3) (peptide)							
	H-ECRPPDDGLC-OH (cysteine pairing not given here) [L-VGB3, linear structure of VGB3]	no measurable binding	no binding	no effect	not toxic	no significant differences	ineffective	abolished
